Measurements taken from patent US7943580B2, “Polypeptide and the use thereof” (National Cerebral and Cardiovascular Center, priority 2004, dated 2011).

Key:
conscious rats [1] = assay: Blood hormone levels after central administration of NUNP and NSNP; type: in vivo, rat; conditions: for prolactin level in blood: 20 minutes after central administration of 1 nmol
Description: (§1) A catheter was placed in the lateral ventricle of Wistar rats (male, 8 weeks old) and housed under controlled conditions with free access to their diet, while they were accustomed to experimental procedures (22°, light-on from 7:00 to 19:00). […] (1) For feed intake during the dark phase, NMS was administered at 18:00 and their feed intake was measured during 19:00 to 7:00. In addition, (2) NMS was administered to 14 hour-fasted rats at 9:00 and immediately thereafter the feed intake was measured for 2 hours.
(§2) Changes in prolactin blood level by central administration were monitored. Central administration to conscious rats was performed in the same way as in EXAMPLE 9. The animal received rat NUNP-36 or rat NSNP-37 prepared by the procedure of EXAMPLE 14 and dissolved in physiological saline and then decapitated, followed by blood collection in 20 minutes or blood collection via the tail vein at each time after peptide administration. Prolactin was measured using RIA kit (Amersham). A direct effect on pituitary anterior cells was also examined. The pituitary anterior cells were prepared from Wistar rats (5 week old, male), incubated in a 96-well plate for 2 days and used for the experiment. After rat NUNP-36 or rat NSNP-37 was added, the culture supernatant was recovered 30 minutes after and the prolactin level was measured.

pituitary anterior cells = assay: Prolactin release from primary culture of anterior pituitary cells; type: cell-based; conditions: primary culture of rat anterior pituitary cells, supernatant recovered 30 minutes after addition
Description: as §2

conscious rats [2] = assay: Blood hormone levels after central administration of NUNP and NSNP; type: in vivo, rat; conditions: 20 minutes after central administration of 1 nmol
chick rectum = assay: Contractile activity on the chick rectum; conditions: dose of 10 pmol, 37° C., Krebs-Henseleit solution
Description: Contraction of the rectum was then measured.

Wistar rats [3] = assay: Effect on feed intake by central administration; type: in vivo, rat
Description: as §1

Wistar rats [4] = assay: Phase shift of circadian rhythms in spontaneous locomotor activity; type: in vivo, rat
Description: Male Wistar rats (300-350 g) were used for the experiment of circadian rhythm phase shift. Intracerebroventricular administration was performed in accordance with the method of Ida et al. (Ida, T., et al., (1999) Brain Res., 821, 526, 1999). The spontaneous locomotor activity was measured by the method of Nakahara et al. (Nakahara, K., et al., Biochem. Biophys. Res. Commun., 318, 156, 2004). The phase shift of spontaneous locomotor activity rhythm was calculated based on the distance between the lines drawn by plotting a delay in time of daily onset of spontaneous locomotor activity for at least 10 days before and after the intracerebroventricular administration of NMS or physiological saline. The onset time of spontaneous locomotor activity was designated as CT12 (circadian time 12). Phase-response data were evaluated using one-way ANOVA followed by Scheffe's multiple comparisons test. […] At 90 minutes after the administration, rats were perfused with 2% paraformaldehyde. Immunostaining for c-Fos protein was performed according to the method of Date et al. (Date, Y, et al., Proc. Natl. Acad. Sci. USA, 96, 748, 1999). The intra-suprachiasmatic nucleus perfusion was performed by an improvement of the Piggins et al. method (Piggins, H. D., et al., J. Neurosci., 15, 5612, 1995). Rats were allowed to free run under constant dark conditions for 2 weeks. Each rat was then implanted with a 26-gauge stainless steel guide cannula in the stereotaxic coordinates by Paxinos and Watson (Paxinos, G. and Watson, C., The rat brain in stereotaxic coordinates, Academic Press, New York, USA, 1998) to reach the suprachiasmatic nucleus. […] The spontaneous locomotor activity was recorded for 2 weeks before and after the administration, respectively, according to the method of Nakahara et al. (Nakahara, K., et al., Biochem. Biophys. Res. Commun., 318, 156, 2004). At the conclusion of the experiment, the exact location of the cannula was determined histologically as follows. Rats received 1 μl of India ink to mark the administered site and were then decapitated. The brain was immediately frozen and cut on a cryostat into 20 μm coronal sections, followed by staining with Crystal Violet. The sections were analyzed by comparing to the corresponding rat brain atlas of Paxinos and Watson (Paxinos, G. and Watson, C., The rat brain in stereotaxic coordinates, Academic Press, New York, USA, 1998). When data obtained for the location was more than 200 μm away from the external border of the suprachiasmatic nucleus, the data was excluded from further analysis.

c-Fos protein = assay: Immunostaining for c-Fos protein in the suprachiasmatic nucleus after intracerebroventricular administration; type: in vivo, rat; conditions: intracerebroventricular 1 nmol at CT6, 90 minutes after administration, compared to physiological saline
Description: Male Wistar rats (300-350 g) were used for the experiment of circadian rhythm phase shift. Intracerebroventricular administration was performed in accordance with the method of Ida et al. (Ida, T., et al., (1999) Brain Res., 821, 526, 1999). The spontaneous locomotor activity was measured by the method of Nakahara et al. (Nakahara, K., et al., Biochem. Biophys. Res. Commun., 318, 156, 2004). The phase shift of spontaneous locomotor activity rhythm was calculated based on the distance between the lines drawn by plotting a delay in time of daily onset of spontaneous locomotor activity for at least 10 days before and after the intracerebroventricular administration of NMS or physiological saline. […] Phase-response data were evaluated using one-way ANOVA followed by Scheffe's multiple comparisons test. […] The spontaneous locomotor activity was recorded for 2 weeks before and after the administration, respectively, according to the method of Nakahara et al. (Nakahara, K., et al., Biochem. Biophys. Res. Commun., 318, 156, 2004). At the conclusion of the experiment, the exact location of the cannula was determined histologically as follows. […] The sections were analyzed by comparing to the corresponding rat brain atlas of Paxinos and Watson (Paxinos, G. and Watson, C., The rat brain in stereotaxic coordinates, Academic Press, New York, USA, 1998). […]

conscious rats [5] = assay: Prolactin release suppressing activity by central administration of NMS; type: in vivo, rat; conditions: 20 minutes after central administration of 1 nmol
Description: as §1
Changes in prolactin blood level by central administration of NMS were monitored. Central administration to conscious rats was performed as in EXAMPLE 9. Blood was collected by decapitation 20 minutes after peptide administration. Prolactin was assayed using RIA kit (Amersham).

Sprague-Dawley rats = assay: Hypertensive activity by transvenous administration to rat; conditions: dose of 3 nmol/kg, pentobarbital-anesthetized rats

Q: Which “prolactin level in blood” value (conscious rats [1]) does the source give for “rat NUNP-36: rat neuromedin U N-terminal peptide-36, SEQ ID NO: 40 (FLFHYSKTQKLGNSNVVSSVVHPLLQLVPQLHERRM; listed as Rattus norvegicus)” here?
A: 68.74 ± 10.4 ng/mL

Q: What about the “prolactin level in blood” value (conscious rats [1]; listed as Rat NUNP-36) of the same substance?
A: 27.34 ± 5.63 ng/mL

Q: What about the “time at which the prolactin level reached the peak” value (conscious rats [1]; central administration at 1 nmol and 0.2 nmol) of the same substance?
A: 20 min

Q: What about the “prolactin level in blood, dose and time dependency” value (conscious rats [1]; since 10 minutes after central administration at 1 nmol and 0.2 nmol) of the same substance?
A: significant increase of prolactin level

Q: And the “prolactin in the culture supernatant” value (pituitary anterior cells)?
A: no change was noted

Q: What about the “follicle-stimulating hormone level in blood” value (conscious rats [2]) of the same substance?
A: 12.26 ± 0.95 ng/mL

Q: And the “other blood hormone (growth hormone, luteinizing hormone, corticosterone) levels” value (conscious rats [2])?
A: any significant change was not noted

Q: What about the “thyroid-stimulating hormone level in blood” value (conscious rats [2]) of the same substance?
A: 4.92 ± 0.22 ng/mL

Q: “rat NSNP-37: rat neuromedin S N-terminal peptide-37, SEQ ID NO: 10 (FLFHYSRAWKSTHPVNSEFAPVHPLMRLAAKLPSRRM; listed as Rattus norvegicus)” was tested. Which “follicle-stimulating hormone level in blood” value (conscious rats [2]) did it give?
A: 10.64 ± 0.72 ng/mL

Q: What about the “other blood hormone (growth hormone, luteinizing hormone, corticosterone) levels” value (conscious rats [2]) of the same substance?
A: any significant change was not noted

Q: What about the “thyroid-stimulating hormone level in blood” value (conscious rats [2]) of the same substance?
A: 5.37 ± 0.51 ng/mL

Q: How did the “contraction of the chick rectum” value (chick rectum) turn out when “LPRLLHTDSRMATIDFPKKDPTTSLGRPFFLFRPRN [rat NMS]” was run?
A: significant contractile activity

Q: And the “2 hour feed intake of fasted rats” value (Wistar rats [3]; 0.5 nmol into the lateral ventricle, 14 hour-fasted rats)?
A: significantly suppressed the feed intake

Q: What about the “feed intake during the dark phase” value (Wistar rats [3]; administered into the lateral ventricle at 18:00, feed intake measured 19:00 to 7:00) of the same substance?
A: significantly suppressed the feed intake dose-dependently

Q: What about the “dose at which the feed intake suppressing effect showed the maximum” value (Wistar rats [3]; dark phase feed intake, lateral ventricle administration) of the same substance?
A: 1 nmol

Q: And the “phase of spontaneous locomotor activity” value (Wistar rats [4]; intracerebroventricular 1 nmol at CT3-9, constant dark conditions)?
A: advances in the phase

Q: And the “phase of spontaneous locomotor activity” value (Wistar rats [4]; intracerebroventricular 1 nmol at CT22-24, constant dark conditions)?
A: delays in the phase

Q: What about the “phase of spontaneous locomotor activity” value (Wistar rats [4]; intracerebroventricular 1 nmol at any other time, constant dark conditions) of the same substance?
A: No phase shift was observed

Q: What about the “length of circadian rhythm” value (Wistar rats [4]; intracerebroventricular administration, any time) of the same substance?
A: not affected

Q: And the “phase of circadian rhythms of spontaneous locomotor activity” value (Wistar rats [4]; microinjected directly into the suprachiasmatic nucleus at CT6)?
A: phase advances

Q: What about the “phase of circadian rhythms of spontaneous locomotor activity” value (Wistar rats [4]; microinjected directly into the suprachiasmatic nucleus at CT23) of the same substance?
A: delays

Q: And the “expression of c-Fos protein in the suprachiasmatic nucleus” value (c-Fos protein)?
A: increased

Q: And the blood prolactin level (conscious rats [5])?
A: 3.6 ± 1.2 ng/mL

Q: And the “blood pressure of rats” value (Sprague-Dawley rats)?
A: significantly increased the blood pressure
